Values quoted from earlier work, collected in patent publication US8496977B2, “Natural extract from whole banana fruit (Musa Spp)” (priority 2009, dated 2013).

Experiments:
eicosanoid synthesis = settings: by modulating eicosanoid synthesis

NCCc1ccc(O)c(O)c1 [dopamine]
radical-scavenging rate (compared with catechin and gallocatechin gallate): faster radical-scavenging rate than catechin | antioxidative potency (compared with other antioxidants): greater than that of BHA, BHT, flavonoids, glutathione, and catechin | protection against intestinal mucosal injury (eicosanoid synthesis): protect against intestinal mucosal injury
